Measurements: PubChem BioAssay (NCI)
“And” between values parts separate entries of the source, which are not always exact repeats. Identical values can stand only once.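 Cells were grown in 96-well plates and exposed to each compound for 48 hours at five concentrations; endpoints were interpolated linearly between bracketing concentrations, or set to the highest concentration if not reached. GI50: concentration for 50% inhibition of growth. TGI: concentration producing complete growth inhibition.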

What follows are compounds tested on HS 578T breast (assay: NCI tumour cell line growth inhibition, 48 h).

First: C/C(N=NC(=S)N1CC2CCC(CC2)C1)=C1\C=CC=CN1O
Second: O=C(Nc1cccc(C(F)(F)F)c1)c1ccc(NC2=C(Cl)C(=O)N(Cc3ccc(Cl)cc3Cl)C2=O)cc1
The TGI of the first is higher: over 100 µM for the first, 8.26 µM for the second.

O=C(Nc1cccc(C(F)(F)F)c1)c1ccc(NC2=C(Cl)C(=O)N(Cc3ccc(Cl)cc3Cl)C2=O)cc1 was tested, and the GI50 was 2.88 µM.

The compounds below were run on HCT-116 colon (assay: NCI tumour cell line growth inhibition, 48 h).

First: COC(=O)C(=Cc1cc(OC)c(OC)c(OC)c1-c1cc2c(cc1C1(C)OCCS1)OCO2)C(=O)OC (configuration not stated)
Second: COc1c(O)c2c(=O)cc3c4c5c(cc(=O)c6c(O)c(OC)c(CC(C)O)c(c(c1CC(C)O)c24)c65)OCO3 (configuration not stated)
The TGI of the first is higher: over 100 µM for the first, 3.48 µM for the second.

C#CC1/C(=C\C(=O)OC)CCCC1O (configuration not stated) and COc1ccc(OCC(=O)O)c2c1CCCC2=O cannot be ordered by TGI: over 100 µM for the first, over 100 µM for the second.

Going from CC12CCC(=O)C[C@H]1CCC(OC=O)C2Br (some centres not stated) to CC(C)C1=Cc2ccc3c(c2C(=O)C1=O)CCCC3(C)C, the TGI falls from over 100 µM to 3.33 µM.

COc1ccc(-c2nnc3n(C)c(=O)c4ccccc4n23)cc1N and Cc1cc2c(=O)c3ccccc3[nH]c2c(C(N)=O)c1C cannot be ordered by TGI: over 100 µM for the first, over 100 µM for the second.

Going from CN(C)C1CCN(C(=O)c2ccc(NC(=O)Nc3ccc(-c4nc(N5CCOCC5)c5cccn5n4)cc3)cc2)CC1 to COc1ccc(C(=O)Nc2ccc(O)c(=O)cc2)cc1, the TGI rises from 20 µM to over 100 µM.

Compared with Cc1nc(Nc2ccc(Cl)cc2)sc1C(=O)NNC(=S)NN, COC(=O)/C(=N\NC(N)=S)C(C(=O)OC)C(=O)C(=O)Nc1ccc(C)cc1 (configuration not stated) is higher in TGI: 30.8 µM for the first, over 100 µM for the second.

COc1ccc2c(c1OCC(=O)O)C(=O)C(CCC(=O)O)CC2 (configuration not stated) and COC(=O)c1ccc2c(c1)C(=O)c1c-2n(CCCN=[N+]=[N-])c(=O)c2cc(OC)c(OC)cc12 cannot be ordered by TGI: over 100 µM for the first, over 100 µM for the second.

Cc1ccc2nc(/C(=C/c3ccc(/C=C(\NC(=O)c4ccccc4)c4nc5ccc(C)cc5[nH]4)c(C)c3)NC(=O)c3ccccc3)[nH]c2c1 and O=C(/C(=C/c1ccc(Cl)cc1)c1ccccc1)c1ccccc1 are within 1.5-fold of each other in TGI: 39.8 µM for the first, 27.1 µM for the second.

COC1C(OC(=S)Nc2ccccc2)c2ccccc2N1C(C)=O (configuration not stated) and C/C(CC(=O)Nc1ccc(C)c(C)c1)=N\N(c1ccccc1)c1ccccc1 cannot be ordered by TGI: over 100 µM for the first, over 100 µM for the second.

O=C(Nc1cccc(Cl)c1)C(=O)C(C(=O)c1ccc2ccccc2c1)C1OC(=O)c2ccccc21 (configuration not stated) and O=C(Nc1cccc(C(F)(F)F)c1)c1ccc(NC2=C(Cl)C(=O)N(Cc3ccc(Cl)cc3Cl)C2=O)cc1 are within 1.5-fold of each other in TGI: 26.7 µM for the first, 18.6 µM for the second.

Compared with CC1=Cc2cccc(C)c2C(=O)C1=O, Cc1ccc(C)c(NC(=O)c2cccc([N+](=O)[O-])c2O)c1 is 12-fold higher in TGI: 6.88 µM for the first, 81 µM for the second.

COCC(OC)C(CC=C(C#N)C#N)OC (configuration not stated) and COc1ccc(CCN(C)C2CCC(C#N)(c3ccc(OC)c(OC)c3)CC2)cc1OC (configuration not stated) cannot be ordered by TGI: over 100 µM for the first, over 100 µM for the second.

Going from NC1CCN(Cc2ccccc2)CC1 to CN1CCC(=O)/C(=C/c2ccccc2)C1, the TGI falls from over 100 µM to 3.25 µM.

First: N#Cc1nn(-c2cc(=O)[nH]c3ccc(Cl)cc23)c(N)c1C#N
Second: O=C1CCC2(c3ccc(Cl)cc3)Nc3cc(Cl)ccc3N12 (configuration not stated)
The TGI of the first is higher: over 100 µM for the first, 19.5 µM for the second.

Compared with On1c(-c2ccccc2)c(-c2ccccc2N2CCCC2)c2ccccc21, CN(C)CCC(/C=C/c1ccccc1)=N\Nc1ccccc1 is lower in TGI: over 100 µM for the first, 10.8 µM for the second.

N#CC(C(=O)/C(=N\NC(N)=O)C(C#N)c1ccc(Cl)cc1)c1ccc(Cl)cc1 (configuration not stated) and CCOC(=O)c1ccc(/C(C)=N/NC(N)=S)cc1 cannot be ordered by TGI: over 100 µM for the first, over 100 µM for the second.

First: CC(C)(C)c1cc(C(P(=O)(O)O)P(=O)(O)O)cc(C(C)(C)C)c1O
Second: COC(=O)[C@]12CC[C@@H](C)[C@H](C)[C@@H]1C1=CC[C@@H]3[C@@]4(C)C[C@@H](O)[C@H](O)[C@@](C)(CO)C4=CC[C@@]3(C)[C@]1(C)CC2
The TGI of the first is higher: over 100 µM for the first, 37.2 µM for the second.

Going from Nc1ncn([C@@H]2O[C@H](CO)[C@@H](O)[C@H]2O)c(=O)n1 to CCOC(=O)c1nc2c(OC)nn(O)cc-2c1[N+](=O)[O-], the TGI rises from 1.71 µM to 38 µM (22-fold).

Compared with C=CCC1(c2ccc(OC)cc2)C=CC(=O)CC1 (configuration not stated), Cc1nc(N)sc1N=Nc1ccccc1Br is lower in TGI: over 100 µM for the first, 55.1 µM for the second.

Going from O=C(OC1CCC(=C2SCCCS2)[C@H]1C1SCCCS1)c1ccccc1 (some centres not stated) to C/C(N=NC(=S)N1CC2CCC(CC2)C1)=C1\C=CC=CN1O, the TGI falls from over 100 µM to 30.5 µM.

Compared with COc1ccc(-c2nnc3n(C)c(=O)c4ccccc4n23)cc1N, COC(=O)c1ccc2c(c1)C(=O)c1c-2n(CCCN=[N+]=[N-])c(=O)c2cc(OC)c(OC)cc12 is higher in GI50: 0.0571 µM for the first, over 100 µM for the second.

Compared with CN(C)C1CCN(C(=O)c2ccc(NC(=O)Nc3ccc(-c4nc(N5CCOCC5)c5cccn5n4)cc3)cc2)CC1, O=C(Nc1cccc(C(F)(F)F)c1)c1ccc(NC2=C(Cl)C(=O)N(Cc3ccc(Cl)cc3Cl)C2=O)cc1 is 85-fold higher in GI50: 0.0705 µM for the first, 5.99 µM for the second.

NC1CCN(Cc2ccccc2)CC1 and N#Cc1nn(-c2cc(=O)[nH]c3ccc(Cl)cc23)c(N)c1C#N cannot be ordered by GI50: over 100 µM for the first, over 100 µM for the second.

Going from Nc1ncn([C@@H]2O[C@H](CO)[C@@H](O)[C@H]2O)c(=O)n1 to COC(=O)[C@]12CC[C@@H](C)[C@H](C)[C@@H]1C1=CC[C@@H]3[C@@]4(C)C[C@@H](O)[C@H](O)[C@@](C)(CO)C4=CC[C@@]3(C)[C@]1(C)CC2, the GI50 rises from 0.322 µM to 19 µM (59-fold).

For CCOC(=O)N[C@H]1CCc2cc(OC)c(OC)c(OC)c2-c2ccc(SC)c(=O)cc21, the TGI was 6.09 µM and > 39 µM.
